# Results as given in patent US20180271808A1, “METHODS OF REDUCING CHEMORESISTANCE AND TREATING CANCER” (Mitchell Woods Pharmaceuticals, Inc., priority 2015, published 2018).
# Read-outs that look alike come from different tables or passages of the source.
# Experiments:
# [1] = tested on: PANC-1 cells; experiment: [3H]-thymidine incorporation (proliferation / cytotoxicity) in PANC-1 cells; format: cell-based, human; details: for IC50: Homo sapiens; for fold decrease in calculated IC50 by MNF pretreatment: PANC-1, MNF 1 μM 24 hours pretreatment
# Protocol: (§1) [^3H]-Thymidine incorporation studies. Cells were seeded in 24-well plates at 2.5×10^4 cells per well and grown for 24 hours at 37° C. The effect of MNF (0-10 μM) on [^3H]-thymidine incorporation into PANC-1, MDA-MB-231, and MCF-7 cells was investigated following procedures previously described in Paul, et al., Cannabinoid receptor activation correlates with the proapoptotic action of the β2-adrenergic agonist (R,R′)-4-methoxy-1-naphthylfenoterol in HepG2 hepatocarcinoma cells, J. Pharmacol. Exp. Ther., vol. 343, pgs 157-166 (2012); and Paul, et al., (R,R′)-4′-methoxy-1-naphthylfenoteroltargets GPR55-mediated ligand internalization and impairs cancer cellmotility, Biochem. Pharmacol., vol. 87, pgs 547-561 (2014). The effect of MNF on doxorubicin cytotoxicity in PANC-1 cells was measured using [^3H]-thymidine incorporation. In these studies, the cells were incubated with either fresh medium containing vehicle (0.01% DMSO) or MNF (1 μM) for 24 hours. The spent media was removed and replaced with fresh media supplemented with doxorubicin (0-10 μM) and the cells incubated for an additional 24 hours. [^3H]-Thymidine (1 μCi per well) incorporation into DNA was then performed for 16 hours. Cells were washed with PBS, lysed in 600 μt of 0.1 N NaOH, and the radioactivity was measured by liquid scintillation counting. Three independent experiments were conducted on separate days. Similar experiments were conducted to investigate the effect of MNF on the cytotoxicity of gemcitabine (0-10 μM) in PANC-1 cells. The effects of MNF (1 μM) on the cytotoxicity of doxorubicinin MDA-MB-231 cells and of MNF (0.01 μM) on the cytotoxicity of doxorubicin in U87MG cells were investigated using the protocol described above.
# (§2) Sigmoidal dose-response curves (IC50 curves) were determined using the ‘nonlinear regression (curve fit)’ model contained within the Prism 4 software package (GraphPad Software, Inc., La Jolla, Calif.) running on a personal computer. For immunoblot analyses, statistical comparisons between treated and control groups were performed using unpaired Student's t-tests. Data are expressed as relative fold change ±standard deviation. P values ≤0.05 were considered significant.
# [2] = tested on: phospho-PKM2 (Ser37) in PANC-1 cells; experiment: Immunofluorescence confocal measurement of nuclear phospho-PKM2; format: cell-based, human; details: PANC-1, 1 μM 10 minutes, basal and after AM251 stimulation
# Protocol: Measurement of nuclear phospho-PKM2. PANC-1 cells were seeded on Lab-Tek II CC2 chamber slides (Thermo Scientific Nunc, Rochester, N.Y.) and grown until they reached >70% confluence. […] The GPR55 agonist AM251 (1 μM) was added for 20 minutes where indicated. Cells were washed twice with PBS, fixed with 4% (v/v) paraformaldehyde (Sigma-Aldrich) in PBS for 20 minutes at room temperature, followed by 3×PBS washes and permeabilization with 0.1% Triton X-100 (Sigma-Aldrich) for 15 minutes. Next, the cells were incubated with 10% goat serum for 1 hour, followed by overnight incubation with rabbit polyclonal anti-phospho-PKM2 antibody (Ser37, 1:200) at 4° C. After 3×PBS washes, Alexa Fluor 488-conjugated goat anti-rabbit antibody (Invitrogen; 1:1000) was added to the slides for 2 hours at room temperature. The slides were washed with PBS and mounted in Prolong Gold antifade mounting medium containing DAPI (4′,6-diamidino-2-phenylindole) (Invitrogen) for nuclear counterstaining. The slides were cured for 24 hours at room temperature in the dark, after which images were acquired with a Zeiss LSM 710 confocal microscope using Carl Zeiss LSM software (Thorn-wood, NY). ImageJ software was used to quantify the changes in the nuclear pool of phospho-PKM2 levels.
# [3] = tested on: AKT phosphorylation (PANC-1 cells); experiment: Western blot of phospho-active (Ser473) and total AKT in PANC-1 cells; details: PANC-1, 1 μM 10 minutes, basally and after AM251 20 minutes
# Protocol: (§4) In the first series of experiments, PANC-1 cells were incubated with media containing vehicle (0.01% DMSO) or MNF (10, 100, 500 and 1000 nM) for 24 hours. The medium was removed, and cells were collected and processed for immunoblot analysis. […] Cell lysates were processed for immunoblot analysis, focusing on the expression of selected cancer cell biomarkers. In the third series of experiments, serum-starved PANC-1 cells were pretreated with vehicle (0.01% DMSO), 1 μM MNF, or 1 μM CID for 10 minutes followed by a 20 minute incubation with and without 1 AM251. Cell lysates were processed for immunoblot analysis and the levels of phospho-active (Ser473) and total forms of AKT were determined. All experiments were repeated three times on three separate days, unless stated otherwise.
# [4] = tested on: HIF-1α, phospho-PKM2 (Ser37), phospho-β-catenin (Tyr333) in PANC-1 nuclear extracts; experiment: Western blot of nuclear translocation of cancer biomarkers in PANC-1 nuclear extracts; format: cell-based, human; details: PANC-1, 1 μM, 10 minutes, with and without AM251 1 μM 20 minutes
# Protocol: Nuclear protein extraction was carried out using a NE-PER Kit followed by the determination of the levels of HIF-1α and phospho-active forms of β-catenin (Tyr333) and PKM2 (Ser37) by immunoblotting. The same experiment was repeated three times on three separate days.
# Cells were lysed in radioimmuno precipitation buffer containing EGTA and EDTA (Boston BioProducts, Ashland, Mass.) supplemented with protease inhibitor cocktail (Sigma-Aldrich). Protein concentration in clarified lysates was determined using the bicinchoninic acid reagent (Thermo Fisher Scientific). Proteins (20 μg/well) were separated on 4-12% precast gels (Invitrogen, Carlsbad, Calif.) using SDS-polyacrylamide gel electrophoresis under reducing conditions and then electrophoretically transferred onto polyvinylidenefluoride membrane (Invitrogen). […] All membrane-bound primary antibodies were detected with horseradish peroxidase-conjugated secondary antibodies (Santa Cruz Biotechnology, Dallas, Tex.) and visualized by enhanced chemiluminescence (ECL Plus, GE Healthcare, Piscataway, N.J.). Quantification of the protein bands was performed by volume densitometry using ImageJ software (National Institutes of Health, Bethesda, Md.) and normalization to β-actin or Lamin A/C. […]
# [5] = tested on: GPR55 (PANC-1 cells); experiment: Western blot of cancer biomarker and MDR proteins in PANC-1 cell lysates; details: for AM251-induced increase in BCRP expression: PANC-1, antagonist 1 μM before AM251 1 μM
# Protocol: as §4
# Cells were lysed in radioimmuno precipitation buffer containing EGTA and EDTA (Boston BioProducts, Ashland, Mass.) supplemented with protease inhibitor cocktail (Sigma-Aldrich). Protein concentration in clarified lysates was determined using the bicinchoninic acid reagent (Thermo Fisher Scientific). […] Western blots were performed according to standard methods, which involved a blocking step in Tris-buffered saline/0.1% Tween-20 (TBS-T) supplemented with 5% non-fat milk and incubation with primary antibodies of interest. All membrane-bound primary antibodies were detected with horseradish peroxidase-conjugated secondary antibodies (Santa Cruz Biotechnology, Dallas, Tex.) and visualized by enhanced chemiluminescence (ECL Plus, GE Healthcare, Piscataway, N.J.). Quantification of the protein bands was performed by volume densitometry using ImageJ software (National Institutes of Health, Bethesda, Md.) and normalization to β-actin or Lamin A/C. […] The antibodies were used at the dilution recommended by the manufacturers.
# [6] = tested on: MCF-7 cells; experiment: [3H]-thymidine incorporation (proliferation) in MCF-7 cells; format: cell-based, human; details: MCF-7 (low GPR55), MNF 24 hours
# Protocol: as §1, with “Similar experiments were conducted to investigate the effect of MNF on the cytotoxicity of gemcitabine (0-10 μM) in PANC-1 cells. The effects of MNF (1 μM) on the cytotoxicity of doxorubicinin MDA-MB-231 cells and of MNF (0.01 μM) on the cytotoxicity of doxorubicin in U87MG cells were investigated using the protocol described above.” left out
# [7] = tested on: PANC-1 cells; experiment: Intracellular uptake of doxorubicin (fluorescence imaging) in PANC-1 cells; format: cell-based, human; details: PANC-1, MNF 1 μM 24 hours, then doxorubicin 0.125 μM 2 hours, vs control cells
# Protocol: (§3) PANC-1 and MDA-MB-231 cells were seeded on Lab-Tek II CC2 chamber slides and grown until they reached >70% confluence. The original media was removed and cells were incubated in fresh media supplemented with vehicle (0.01% DMSO) or 1 μM MNF for 24 hours, after which doxorubicin (0.125 μM) was added for an additional 2 hours. The cells were washed with PBS and the images were acquired with a Zeiss axiovert 200 microscope using standard FITC filter (#09 filter set) and Carl Zeiss LSM software. ImageJ software was used to quantify the changes in the nuclear accumulation of doxorubicin defined as ring-shaped regions of interest (ROI).
# [8] = tested on: Pgp, BCRP in PANC-1 nuclear extracts; experiment: Immunoblot of Pgp and BCRP in PANC-1 nuclear extracts; format: cell-based, human; details: MNF 0.5 and 1 μM, 24 hours
# Protocol: Values were normalized to PANC-1 cells treated with 0.01% DMSO as control. Data are expressed as mean±SD from 3 independent experiments. FIG. 5C presents fluorescence imaging of intracellular doxorubicin in PANC-1 cells pretreated with MNF (1 μM) for 24 hours and followed with 0.125 μM of doxorubicin treatment for 2 hours. The upper panel of FIG. 5D presents representative immunoblot depicting protein levels of Pgp, BCRP, and lamin A/C in PANC-1 nuclear extracts after cell treatment with 0.5 and 1 μM of MNF for 24 hours. In the lower panel of FIG. 5D, protein bands were quantified by densitometry and the data normalized to lamin A/C levels and plotted relative to cells treated with 0.01% DMSO as control.
# Cells were lysed in radioimmuno precipitation buffer containing EGTA and EDTA (Boston BioProducts, Ashland, Mass.) supplemented with protease inhibitor cocktail (Sigma-Aldrich). Protein concentration in clarified lysates was determined using the bicinchoninic acid reagent (Thermo Fisher Scientific). […] All membrane-bound primary antibodies were detected with horseradish peroxidase-conjugated secondary antibodies (Santa Cruz Biotechnology, Dallas, Tex.) and visualized by enhanced chemiluminescence (ECL Plus, GE Healthcare, Piscataway, N.J.). […]
# [9] = tested on: MDA-MB-231 cells; experiment: Intracellular uptake of doxorubicin (fluorescence imaging) in MDA-MB-231 cells; format: cell-based, human; details: MDA-MB-231, MNF 1 μM 24 hours, then doxorubicin 0.125 μM 2 hours, vs control cells
# Protocol: as §3
# [10] = tested on: MDA-MB-231 breast cancer cells; experiment: [3H]-thymidine incorporation (proliferation / cytotoxicity) in MDA-MB-231 cells; format: cell-based, human; details: for IC50: Homo sapiens
# Protocol: as §1, §2
# [11] = tested on: U87MG glioblastoma cells; experiment: [3H]-thymidine incorporation (doxorubicin cytotoxicity) in U87MG cells; format: cell-based; details: Homo sapiens, U-87 MG
# Protocol: [^3H]-Thymidine incorporation studies. Cells were seeded in 24-well plates at 2.5×10^4 cells per well and grown for 24 hours at 37° C. The effect of MNF (0-10 μM) on [^3H]-thymidine incorporation into PANC-1, MDA-MB-231, and MCF-7 cells was investigated following procedures previously described in Paul, et al., Cannabinoid receptor activation correlates with the proapoptotic action of the β2-adrenergic agonist (R,R′)-4-methoxy-1-naphthylfenoterol in HepG2 hepatocarcinoma cells, J. Pharmacol. Exp. Ther., vol. 343, pgs 157-166 (2012); and Paul, et al., (R,R′)-4′-methoxy-1-naphthylfenoteroltargets GPR55-mediated ligand internalization and impairs cancer cellmotility, Biochem. Pharmacol., vol. 87, pgs 547-561 (2014). The effect of MNF on doxorubicin cytotoxicity in PANC-1 cells was measured using [^3H]-thymidine incorporation. In these studies, the cells were incubated with either fresh medium containing vehicle (0.01% DMSO) or MNF (1 μM) for 24 hours. […] Cells were washed with PBS, lysed in 600 μt of 0.1 N NaOH, and the radioactivity was measured by liquid scintillation counting. […]
# Sigmoidal dose-response curves (IC50 curves) were determined using the ‘nonlinear regression (curve fit)’ model contained within the Prism 4 software package (GraphPad Software, Inc., La Jolla, Calif.) running on a personal computer. […] Data are expressed as relative fold change ±standard deviation. […]
# [12] = PANC-1, MNF 1 μM 24 hours, medium replaced, then drug 0-10 μM 24 hours, read-out: calculated IC50 of chemotherapeutic drug, after MNF pretreatment
# [13] = PANC-1, vehicle (0.01% DMSO) 24 hours, then drug 0-10 μM 24 hours, read-out: calculated IC50 of chemotherapeutic drug, without MNF pretreatment
compound,measurement,setting,value
Nc1ccn([C@@H]2O[C@H](CO)[C@@H](O)C2(F)F)c(=O)n1 [gemcitabine],IC50,[1]; [12],153 ± 3 nM
same,IC50,[1]; [13],487 ± 3 nM
same,fold decrease in calculated IC50 by MNF pretreatment,[1]; p<0.001,~3 fold
Cc1ccc(-c2n[nH]c3c2C(c2cccc(O)c2)N(c2ccc(C(=O)O)cc2)C3=O)cc1 (centres unmarked) [CID],nuclear pool of phosphoactive form of PKM2,[2],markedly reduced
same,activating phosphorylation of AKT,[3],significantly decreased
same,constitutive and AM251-induced nuclear accumulation of HIF-1α and phosphoactive forms of PKM2 (Ser37) and β-catenin (Tyr333),[4],significantly abrogated
same,"induction of EGFR, BCRP, PKM2 by AM251","[5]; PANC-1, 1 μM pretreatment 30 minutes, then AM251 1 μM 24 hours",blocked
same,"basal levels of EGFR, BCRP, and PKM2 proteins","[5]; PANC-1, 1 μM, 24 hours",significantly reduced
same,AM251-induced increase in BCRP expression,[5],blocked
"COc1ccc(C[C@@H](C)NC[C@H](O)c2cc(O)cc(O)c2)c2ccccc12 [MNF, (R,R′)-4′-methoxy-1-naphthyl-fenoterol]",effect on the growth of MCF-7 cells,[6],no significant effect
same,nuclear pool of phosphoactive form of PKM2,[2],markedly reduced
same,uptake and nuclear retention of doxorubicin,[7],enhancement
same,activating phosphorylation of AKT,[3],significantly decreased
same,nuclear pool of Pgp and BCRP,[8],marked reduction
same,uptake and nuclear retention of doxorubicin,[9],enhanced uptake and nuclear retention
same,constitutive and AM251-induced nuclear accumulation of HIF-1α and phosphoactive forms of PKM2 (Ser37) and β-catenin (Tyr333),[4],significantly abrogated
same,IC50,"[1]; PANC-1, MNF 0-10 μM, 24 hours, mean±SD, read-out: IC50, inhibition in cell growth",650 ± 250 nM
same,maximum reduction in cell growth,"[1]; PANC-1, MNF 0-10 μM, 24 hours, p<0.001",42%
same,"expression of cancer biomarkers (EGFR, β-catenin, PKM2, cyclin D1, Pgp, BCRP, MRP1, MRP5)","[5]; PANC-1, MNF 10-1000 nM, 24 hours",dose-dependently reduces
same,AM251-induced increase in BCRP expression,[5],blocked
same,IC50,"[10]; MDA-MB-231, MNF 24 hours, read-out: IC50, inhibition in cell growth",106 ± 3 nM
same,dose-dependent inhibition in cell growth,"[10]; MDA-MB-231, MNF 24 hours",50%
COc1cccc2c1C(=O)c1c(O)c3c(c(O)c1C2=O)C[C@@](O)(C(=O)CO)C[C@@H]3O[C@H]1C[C@H](N)[C@H](O)[C@H](C)O1 [doxorubicin],IC50,"[11]; MNF 0.01 μM 24 hours, then doxorubicin 24 hours, p<0.001, read-out: calculated IC50 of doxorubicin, after MNF pretreatment",1.1 ± 0.5 nM
same,IC50,"[11]; doxorubicin 24 hours, read-out: calculated IC50 of doxorubicin, without MNF pretreatment",6 ± 0.8 nM
same,IC50,[1]; [12],51 ± 2 nM
same,IC50,[1]; [13],193 ± 4 nM
same,fold decrease in calculated IC50 by MNF pretreatment,[1]; p<0.001,~4 fold
same,IC50,"[10]; MDA-MB-231, MNF 1 μM 24 hours, then doxorubicin 0-10 μM 24 hours, p<0.05, read-out: calculated IC50 of doxorubicin, after MNF pretreatment",255 ± 13 nM
same,IC50,"[10]; MDA-MB-231, doxorubicin 0-10 μM 24 hours, read-out: calculated IC50 of doxorubicin, without MNF pretreatment",570 ± 14 nM
